Patent US20220132857A1, “Disinfecting Composition and Related Methods” (priority 2020, published 2022)
Like-named read-outs stand apart in the source and are kept apart here.

How the values were obtained:
[1] = test system: Staphylococcus Aureus; conditions: within 5 minutes of contact time; cited from earlier work
[2] = test system: Pseudomonas Aeruginosa; conditions: within 5 minutes of contact time; cited from earlier work
[3] = test system: residual ATP (ATP-containing contamination including bacteria); assay: ATP bioluminescence disinfection efficacy on polyester fabric contaminated with collected water; conditions: 5 ml dropwise, after 5 minutes, before treatment Area 1: 243, Area 2: 291
Text: Bioluminescence is a practical and simple method used to quickly assess the bio-contamination of surfaces. The method has been developed based on the biochemical adenosine triphosphate (“ATP”), which is the energy molecule of all the living organisms, luciferin/luciferase, and oxygen. The reaction results in a light-emitting decay which can be detected and related to the amount of ATP.
The luminometer (in conjunction with ATP swabs) uses bioluminescence to detect residual ATP as an indicator of surface cleanliness. The presence of ATP on a surface indicates incomplete cleaning and the presence of ATP-containing contamination including bacteria.
Test results are presented as Relative Light Units (“RLU”). RLU is the unit of measurement used in bioluminescence. When a test swab is activated, a bioluminescent reaction occurs, generating light output. Luminometers measure and quantify that light with an RLU output. […]
The relationship between the amount of ATP on the sample and the RLU result reading on the luminometer is directly proportional to the amount of ATP collected from the sample. A high RLU reading indicates a large amount of ATP at the test location. […]
Cleaning properly results in less ATP at the location. Less ATP results in less light output during the bioluminescent reaction and consequently, a lower RLU reading. […]

[4] = test system: residual ATP (ATP-containing contamination including bacteria); conditions: granite tile, 3 ml soaked through paper towel, after 5 minutes; before treatment Area 1: 1057, Area 2: 998
Text: Therefore, the surfaces to be evaluated had to be thoroughly cleaned and tested for contamination prior to commencing the test.
Test results are presented as Relative Light Units (“RLU”). RLU is the unit of measurement used in bioluminescence. When a test swab is activated, a bioluminescent reaction occurs, generating light output. Luminometers measure and quantify that light with an RLU output.
A high RLU reading indicates a large amount of ATP at the test location. This in turn indicates improper cleaning and the presence of contaminants.
Cleaning properly results in less ATP at the location. Less ATP results in less light output during the bioluminescent reaction and consequently, a lower RLU reading.
A granite floor tile was selected and thoroughly disinfected with hot water and a cocktail of disinfectants. It was then tested for ATP until the readings consistently indicated RLU of 0-2 which represented a surface free of ATP within the margins of error.
A sample of seemingly contaminated water was collected from a pond and left stagnant for solid settlement for 3 days.
The granite tile was covered with a paper towel and the water was added to the towel in a dropwise manner until it was completely soaked. After a few hours, soaking was repeated, and the specimen was left to dry overnight. […]

## OO [0.6 wt. % hydrogen peroxide solution, hydrogen peroxide]
[1]
  reduction against Staphylococcus Aureus: ~1 Log
[2]
  reduction against Pseudomonas Aeruginosa: < 1 Log

## OO [6 weight percent hydrogen peroxide solution]
[1]
  reduction against Staphylococcus Aureus: ~3 Log
[2]
  reduction against Pseudomonas Aeruginosa: < 2 Log

## CC(C)O [commercial 70% Iso-Propyl Alcohol, Iso-Propyl Alcohol]
[3]
  ATP reading after treatment: 22 RLU

## OO [hydrogen peroxide with no other additive, hydrogen peroxide]
[4]
  ATP reading after treatment: 82 RLU
